In ChEMBL document CHEMBL5385871, “Application and synthesis of thiazole ring in clinically approved drugs” (Eur J Med Chem, 2023):
Converted amounts (≈) assume the structure as drawn. Where a name gives a salt, the structure may show the parent alone.

Columns and labels:
[1] = Inhibition of P-gp-mediated extrusion of [14C]saquinavir in porcine BCEC cells measured after 5 mins by scintillation counting method; format: cell-based, Sus scrofa; conditions: brain capillary endothelial cell
Pseudomonas aeruginosa = experiment: Antibacterial activity against Pseudomonas aeruginosa assessed as bacterial growth inhibition; format: functional
Streptococcus pneumoniae = experiment: Antibacterial activity against Streptococcus pneumoniae assessed as bacterial growth inhibition; format: functional
Escherichia coli = experiment: Antibacterial activity against Escherichia coli assessed as bacterial growth inhibition; format: functional
[2] = Oral bioavailability in fasted Sprague-Dawley rat at 10 mg/kg administered via gavage measured for 10 hrs by LC/MS/MS analysis; format: ADME, organism-based; conditions: in vivo
in vivo [3] = conditions: Sprague-Dawley, rat, po, 10 mg/kg
Description: Half life in fasted Sprague-Dawley rat at 10 mg/kg, po administered via gavage measured for 10 hrs by LC/MS/MS analysis

WiDr = experiment: cells; conditions: Homo sapiens, 72 h
Description: Antiproliferative activity against human WiDr cells incubated for 72 hrs by MTT assay

K562 = experiment: cells; conditions: Homo sapiens, K562, 72 h
Description: Antiproliferative activity against human K562 cells incubated for 72 hrs by MTT assay

in vivo [4] = conditions: Sprague-Dawley, rat, iv, 10 mg/kg
Description: Half life in fasted Sprague-Dawley rat at 10 mg/kg, iv measured for 10 hrs by LC/MS/MS analysis

Bacteria = experiment: Antibacterial activity against aerobic gram-negative bacteria assessed as bacterial growth inhibition; format: functional
Enterobacteriaceae = experiment: Antibacterial activity against Enterobacteriaceae assessed as bacterial growth inhibition; format: functional
[5] = Antibacterial activity against non-fermentative bacteria assessed as bacterial growth inhibition
[6] = target: Beta-3 adrenergic receptor (Homo sapiens, UniProt P13945); experiment: Agonist activity at human beta-3 adrenoceptor expressed in CHO cells assessed as cAMP accumulation incubated for 10 mins by radioimmunoassay; format: functional, cell-based
Beta-3 adrenergic receptor, sequence (P13945 whole entry): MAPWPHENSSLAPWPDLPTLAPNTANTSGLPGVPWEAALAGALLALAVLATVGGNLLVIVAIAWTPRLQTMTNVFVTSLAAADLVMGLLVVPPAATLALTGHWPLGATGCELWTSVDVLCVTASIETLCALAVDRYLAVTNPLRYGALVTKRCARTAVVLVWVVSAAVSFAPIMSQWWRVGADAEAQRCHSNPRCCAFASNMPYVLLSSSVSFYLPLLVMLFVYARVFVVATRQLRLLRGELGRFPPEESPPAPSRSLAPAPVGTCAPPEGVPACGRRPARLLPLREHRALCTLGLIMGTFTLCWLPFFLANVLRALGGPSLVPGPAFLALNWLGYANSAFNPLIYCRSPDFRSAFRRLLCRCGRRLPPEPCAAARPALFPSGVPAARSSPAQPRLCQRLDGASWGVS

Urinary bladder = experiment: Ex vivo relaxant activity against CCh-induced contraction in rat urinary bladder smooth muscle strips relative to control; format: functional
[7] = target: T1, Beta-1 adrenergic receptor (Homo sapiens, UniProt P08588); experiment: Agonist activity at human beta-1 adrenoceptor expressed in CHO cells assessed as cAMP accumulation incubated for 10 mins by radioimmunoassay; format: functional, cell-based
T1 sequence (P08588 whole entry): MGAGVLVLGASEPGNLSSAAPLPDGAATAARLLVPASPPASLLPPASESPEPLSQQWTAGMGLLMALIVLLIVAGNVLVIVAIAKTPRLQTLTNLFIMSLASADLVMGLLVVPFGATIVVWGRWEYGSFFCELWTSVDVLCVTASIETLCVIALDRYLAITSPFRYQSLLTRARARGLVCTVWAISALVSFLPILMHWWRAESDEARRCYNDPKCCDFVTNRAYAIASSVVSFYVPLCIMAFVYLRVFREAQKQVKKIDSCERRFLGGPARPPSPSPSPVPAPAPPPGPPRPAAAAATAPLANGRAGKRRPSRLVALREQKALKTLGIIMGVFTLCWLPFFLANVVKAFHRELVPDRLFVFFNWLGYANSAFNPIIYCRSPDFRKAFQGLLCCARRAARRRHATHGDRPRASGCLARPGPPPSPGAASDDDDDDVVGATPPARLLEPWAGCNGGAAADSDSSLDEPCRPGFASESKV

[8] = target: T2, Beta-2 adrenergic receptor (Homo sapiens, UniProt P07550); experiment: Agonist activity at human beta-2 adrenoceptor expressed in CHO cells assessed as cAMP accumulation incubated for 10 mins by radioimmunoassay; format: functional, cell-based
T2 sequence (P07550 whole entry): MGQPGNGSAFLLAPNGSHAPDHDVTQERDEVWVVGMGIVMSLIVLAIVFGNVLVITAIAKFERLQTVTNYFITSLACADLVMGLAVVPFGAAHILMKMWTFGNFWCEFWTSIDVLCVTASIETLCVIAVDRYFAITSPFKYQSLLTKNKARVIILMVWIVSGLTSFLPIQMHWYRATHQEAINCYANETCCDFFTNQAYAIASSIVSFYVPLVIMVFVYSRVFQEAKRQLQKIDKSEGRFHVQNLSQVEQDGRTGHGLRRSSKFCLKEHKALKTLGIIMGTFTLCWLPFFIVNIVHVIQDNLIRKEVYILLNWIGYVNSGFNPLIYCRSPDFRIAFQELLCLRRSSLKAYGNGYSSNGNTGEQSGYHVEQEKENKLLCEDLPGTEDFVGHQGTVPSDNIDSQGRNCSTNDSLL

Staphylococcus aureus = experiment: Antibacterial activity against Staphylococcus aureus assessed as bacterial growth inhibition; format: functional
[9] = tested on: Staphylococcus epidermidis; experiment: Antibacterial activity against Staphylococcus epidermidis assessed as bacterial growth inhibition; format: functional
Streptococcus pyogenes = experiment: Antibacterial activity against Streptococcus pyogenes assessed as bacterial growth inhibition; format: functional
[10] = Inhibition of proliferation in Giardia lamblia trophozoites; format: functional, Giardia duodenalis
[11] = Inhibition of PI3Kalpha H1047R mutant (unknown origin); set-up: species or system Homo sapiens
Haemophilus influenzae = experiment: Antibacterial activity against Haemophilus influenzae assessed as bacterial growth inhibition; format: functional
Neisseria gonorrhoeae = experiment: Antibacterial activity against Neisseria gonorrhoeae assessed as bacterial growth inhibition; format: functional
Acetylcholinesterase = Acetylcholinesterase (Homo sapiens, UniProt P22303)
Acetylcholinesterase, sequence (P22303 whole entry): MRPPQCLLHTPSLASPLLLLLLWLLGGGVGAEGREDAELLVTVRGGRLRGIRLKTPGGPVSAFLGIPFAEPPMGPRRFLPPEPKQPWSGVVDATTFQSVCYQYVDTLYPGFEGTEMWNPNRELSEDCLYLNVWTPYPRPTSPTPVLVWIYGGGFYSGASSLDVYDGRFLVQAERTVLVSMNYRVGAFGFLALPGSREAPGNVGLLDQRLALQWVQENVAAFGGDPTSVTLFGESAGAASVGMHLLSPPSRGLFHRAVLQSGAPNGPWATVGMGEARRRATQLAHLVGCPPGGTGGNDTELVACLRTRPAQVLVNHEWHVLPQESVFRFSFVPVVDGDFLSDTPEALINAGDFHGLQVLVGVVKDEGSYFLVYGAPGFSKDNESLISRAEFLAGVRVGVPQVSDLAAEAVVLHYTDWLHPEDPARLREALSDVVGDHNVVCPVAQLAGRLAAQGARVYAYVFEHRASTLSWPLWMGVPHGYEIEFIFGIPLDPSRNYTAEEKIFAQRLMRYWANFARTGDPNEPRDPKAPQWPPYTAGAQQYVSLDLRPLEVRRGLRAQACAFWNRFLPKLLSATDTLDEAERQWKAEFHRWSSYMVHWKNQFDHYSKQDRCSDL
Description: Inhibition of AChE (unknown origin)

[12] = Terminal half life in fasted cynomolgus monkey at 3 mg/kg, po measured for 24 hrs by LC-MS/MS analysis; format: ADME, organism-based, Macaca fascicularis; conditions: in vivo, read-out: beta t1/2 (converted)
[13] = Terminal half life in fasted Sprague-Dawley rat at 3 mg/kg, po measured for 24 hrs by LC-MS/MS analysis; format: ADME, organism-based; conditions: in vivo, read-out: beta t1/2 (converted)
[14] = target: T2, Beta-2 adrenergic receptor; experiment: Inhibition of beta-2 adrenoceptor (unknown origin)
[15] = target: T1, Beta-1 adrenergic receptor; experiment: Inhibition of beta-1 adrenoceptor (unknown origin)
[16] = Induction of colony formation of human megakaryocyte from human cord blood CD34-positive cells measured after 10 to 12 days; format: functional, cell-based
BaF3 = experiment: Induction of cell proliferation of mouse BaF3 cells expressing full-length human TPO receptor by WST-1/1-methoxy PMS assay; format: functional, cell-based
D(3) dopamine receptor = D(3) dopamine receptor (Homo sapiens, UniProt P35462)
D(3) dopamine receptor, sequence (P35462 whole entry): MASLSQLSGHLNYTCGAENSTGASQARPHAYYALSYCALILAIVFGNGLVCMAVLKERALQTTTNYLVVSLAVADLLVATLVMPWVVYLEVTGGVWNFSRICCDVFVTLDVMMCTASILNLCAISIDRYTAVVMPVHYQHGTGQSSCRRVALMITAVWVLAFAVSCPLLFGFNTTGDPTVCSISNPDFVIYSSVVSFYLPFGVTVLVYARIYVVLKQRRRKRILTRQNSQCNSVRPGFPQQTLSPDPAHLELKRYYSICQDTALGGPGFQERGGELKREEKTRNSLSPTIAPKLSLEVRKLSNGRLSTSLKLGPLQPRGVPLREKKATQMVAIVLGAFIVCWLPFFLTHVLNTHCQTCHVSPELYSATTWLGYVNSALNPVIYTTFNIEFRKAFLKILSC
Description: Binding affinity to human D3 receptor assessed as inhibition constant

Bacteroides fragilis = experiment: Antibacterial activity against Bacteroides fragilis assessed as bacterial growth inhibition; format: functional
Clostridioides difficile = experiment: Antibacterial activity against Clostridium difficile assessed as bacterial growth inhibition; format: functional
Moraxella catarrhalis = experiment: Antibacterial activity against Moraxella catarrhalis assessed as bacterial growth inhibition; format: functional
Proteus mirabilis = experiment: Antibacterial activity against Proteus mirabilis assessed as bacterial growth inhibition; format: functional

Q: Which IC50 [1] does the source give for `CC(C)c1nc(CN(C)C(=O)N[C@H](C(=O)N[C@@H](Cc2ccccc2)C[C@H](O)[C@H](Cc2ccccc2)NC(=O)OCc2cncs2)C(C)C)cs1` [RITONAVIR] here?
A: Its IC50 is 200 nM.

Q: With `CO/N=C(\C(=O)N[C@@H]1C(=O)N2C(C(=O)[O-])=C(C[N+]3(C)CCCC3)CS[C@H]12)c1csc(N)n1` as the compound, how does the MIC (Pseudomonas aeruginosa) read?
A: Its MIC is over 0.06 µg/mL.

Q: And the MIC (Streptococcus pneumoniae)?
A: The MIC was 7 ng/mL (≈ 0.0146 µM).

Q: And the MIC (Escherichia coli)?
A: Its MIC is at most 0.007 µg/mL.

Q: Which results are given for `Cc1nc(Nc2ncc(C(=O)Nc3c(C)cccc3Cl)s2)cc(N2CCN(CCO)CC2)n1.O` [DASATINIB]?
A: bioavailability [2]: 27%; half-life at 10 h (in vivo [3]): 186 min; IC50 (WiDr): < 1 nM; IC50 (K562): 52 nM; half-life at 10 h (in vivo [4]): 198 min

Q: For `CC(C)(O/N=C(\C(=O)N[C@@H]1C(=O)N2C(C(=O)[O-])=C(C[N+]3(CCNC(=O)c4ccc(O)c(O)c4Cl)CCCC3)CS[C@H]12)c1csc(N)n1)C(=O)O` [CEFIDEROCOL], which MIC (Bacteria) is on record?
A: The MIC was under 2 µg/mL.

Q: And the MIC (Enterobacteriaceae)?
A: The MIC was under 2 µg/mL.

Q: And the MIC [5]?
A: Its MIC is under 2 µg/mL.

Q: What does the source list for `Nc1nc(CC(=O)Nc2ccc(CCNC[C@H](O)c3ccccc3)cc2)cs1` [MIRABEGRON]?
A: EC50 [6]: 22.4 nM; Emax (Urinary bladder): 94%; EC50 [7]: ≥ 10 µM; EC50 [8]: ≥ 10 µM

Q: For `C[C@H]1[C@H](NC(=O)/C(=N\OC(C)(C)C(=O)O)c2csc(N)n2)C(=O)N1S(=O)(=O)O` [AZTREONAM], which MIC (Staphylococcus aureus) is on record?
A: Its MIC is at least 8 µg/mL.

Q: What about the MIC [9] of the same compound?
A: The MIC was 8 µg/mL (≈ 18.4 µM).

Q: What about the MIC (Streptococcus pyogenes) of the same compound?
A: Its MIC is at least 8000 ng/mL.

Q: Which IC50 [10] does the source give for `CC(=O)Oc1ccccc1C(=O)Nc1ncc([N+](=O)[O-])s1` [NITAZOXANIDE] here?
A: Its IC50 is 2400 nM.

Q: For `Cc1nc(NC(=O)N2CCC[C@H]2C(N)=O)sc1-c1ccnc(C(C)(C)C(F)(F)F)c1` [ALPELISIB], which IC50 [11] is on record?
A: Its IC50 is about 4 nM.

Q: Which MIC (Streptococcus pyogenes) does the source give for `COCC1=C(C(=O)O)N2C(=O)[C@@H](NC(=O)/C(=N\OC)c3csc(N)n3)[C@H]2SC1` [CEFPODOXIME] here?
A: The MIC was at most 4 ng/mL.

Q: And the MIC (Haemophilus influenzae)?
A: The MIC was at most 0.03 µg/mL.

Q: And the MIC (Neisseria gonorrhoeae)?
A: The MIC was 4 ng/mL (≈ 0.00936 µM).

Q: With `COc1cc(O)c(C(=O)Nc2nc(C(=O)NCCN(C(C)C)C(C)C)cs2)cc1OC` as the compound, how does the IC50 (Acetylcholinesterase) read?
A: The IC50 was 1790 nM.

Q: For `COc1ccc2c(O[C@@H]3C[C@H]4C(=O)N[C@]5(C(=O)NS(=O)(=O)C6CC6)C[C@H]5/C=C\CCCCN(C)C(=O)[C@@H]4C3)cc(-c3nc(C(C)C)cs3)nc2c1C`, which half-life [12] is on record?
A: Its half-life is 246 min.

Q: And the half-life [13]?
A: Its half-life is 90 min.

Q: For `CC(C)(C)NCC(O)CSc1nc(-c2ccc(C(N)=O)s2)cs1` (centres undefined) [AROTINOLOL], which Ki [14] is on record?
A: Its Ki is 0.55 nM.

Q: What about the Ki [15] of the same compound?
A: The Ki was 0.182 nM.

Q: Which results are given for `O=C(Nc1nc(-c2cc(Cl)cs2)c(N2CCN(C3CCCCC3)CC2)s1)c1cnc(N2CCC(C(=O)O)CC2)c(Cl)c1` [AVATROMBOPAG]?
A: EC50 [16]: 25 nM; EC50 (BaF3): 3.3 nM

Q: For `C=CC1=C(C(=O)O)N2C(=O)[C@@H](NC(=O)/C(=N\O)c3csc(N)n3)[C@H]2SC1`, which MIC (Streptococcus pyogenes) is on record?
A: The MIC was at most 4 ng/mL.

Q: And the MIC (Haemophilus influenzae)?
A: Its MIC is 0.05 µg/mL (≈ 0.126 µM).

Q: And the MIC (Streptococcus pneumoniae)?
A: The MIC was 6 ng/mL (≈ 0.0152 µM).

Q: Which Ki (D(3) dopamine receptor) does the source give for `CCCN[C@H]1CCc2nc(N)sc2C1` [PRAMIPEXOLE DIHYDROCHLORIDE] here?
A: Its Ki is 0.5 nM.

Q: With `CN(C)CCn1nnnc1SCC1=C(C(=O)O)N2C(=O)[C@@H](NC(=O)Cc3csc(N)n3)[C@H]2SC1` [CEFOTIAM] as the compound, how does the MIC (Staphylococcus aureus) read?
A: Its MIC is 0.25 µg/mL (≈ 0.476 µM).

Q: What about the MIC (Bacteroides fragilis) of the same compound?
A: The MIC was at least 16 µg/mL.

Q: What about the MIC (Clostridioides difficile) of the same compound?
A: The MIC was over 128 µg/mL.

Q: With `Nc1nc(/C(=C/CC(=O)O)C(=O)N[C@@H]2C(=O)N3C(C(=O)O)=CCS[C@H]23)cs1` [CEFTIBUTEN] as the compound, how does the MIC (Haemophilus influenzae) read?
A: Its MIC is 0.015 µg/mL (≈ 0.0365 µM).

Q: What about the MIC (Streptococcus pneumoniae) of the same compound?
A: The MIC was 500 ng/mL (≈ 1.22 µM).

Q: And the MIC (Moraxella catarrhalis)?
A: The MIC was 0.5 µg/mL (≈ 1.22 µM).

Q: Which MIC (Haemophilus influenzae) does the source give for `C=CC1=C(C(=O)O)N2C(=O)[C@@H](NC(=O)/C(=N\OCC(=O)O)c3csc(N)n3)[C@H]2SC1` [CEFIXIME] here?
A: Its MIC is 0.004 µg/mL (≈ 0.00882 µM).

Q: What about the MIC (Escherichia coli) of the same compound?
A: The MIC was 0.015 µg/mL (≈ 0.0331 µM).

Q: What about the MIC (Proteus mirabilis) of the same compound?
A: The MIC was at most 8 ng/mL.
